Read-outs that look alike come from different tables or passages of the source.
Key:
[1] = target: T1, Human cyclooxygenase 2 (COX-2) (Homo sapiens, UniProt P35354); experiment: COX-2 inhibition, microsomal assay; settings: 20 min, read-out: % Inhibition of COX Enzymes in Microsomal Assays, COX-2
T1 sequence (P35354 18-604): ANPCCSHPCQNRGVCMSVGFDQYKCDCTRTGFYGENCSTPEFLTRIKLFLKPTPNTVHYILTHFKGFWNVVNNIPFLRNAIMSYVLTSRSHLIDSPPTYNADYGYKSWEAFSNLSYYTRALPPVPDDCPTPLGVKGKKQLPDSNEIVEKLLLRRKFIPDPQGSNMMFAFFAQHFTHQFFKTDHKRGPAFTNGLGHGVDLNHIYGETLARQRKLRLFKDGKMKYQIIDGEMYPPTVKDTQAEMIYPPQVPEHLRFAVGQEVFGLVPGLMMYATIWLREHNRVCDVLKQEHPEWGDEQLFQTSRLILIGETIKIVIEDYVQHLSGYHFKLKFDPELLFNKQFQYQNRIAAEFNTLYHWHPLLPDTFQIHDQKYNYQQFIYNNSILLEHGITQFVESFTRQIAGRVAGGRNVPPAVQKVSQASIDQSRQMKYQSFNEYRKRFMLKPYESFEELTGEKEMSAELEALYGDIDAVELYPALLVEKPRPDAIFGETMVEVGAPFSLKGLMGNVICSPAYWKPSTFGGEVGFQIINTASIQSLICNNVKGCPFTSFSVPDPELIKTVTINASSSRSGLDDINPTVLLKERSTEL
Description: (§1) Human cyclooxygenase 1 and 2 are expressed in a baculovirus expression system using High 5 insect cells. Microsomal fractions prepared from the cells are stored at -80° C. The assays are performed at room temperature in phosphate buffered saline. After incubating the COX-1 or COX-2 microsomes with hematin (2 μM), phenol (0.5 mM) and reduced glutathione (1 mM) for 5 minutes, inhibitor or DMSO vehicle is added and allowed to incubate for 20 minutes. Arachidonic acid (2 μM) is added and after 20 minutes the reaction is stopped by the addition of HCl (0.1 N HCl final concentration).
(§2) The inhibitory activities against COX-1 and COX-2 of the compounds described in the above Synthetic Examples were determined using the two in vitro assays described above.

[2] = target: Human cyclooxygenase 1 (COX-1) (Homo sapiens, UniProt P23219); experiment: COX-1 inhibition, microsomal assay; settings: 20 min, read-out: % Inhibition of COX Enzymes in Microsomal Assays, COX-1
Sequence of Human cyclooxygenase 1 (COX-1) (P23219 24-599): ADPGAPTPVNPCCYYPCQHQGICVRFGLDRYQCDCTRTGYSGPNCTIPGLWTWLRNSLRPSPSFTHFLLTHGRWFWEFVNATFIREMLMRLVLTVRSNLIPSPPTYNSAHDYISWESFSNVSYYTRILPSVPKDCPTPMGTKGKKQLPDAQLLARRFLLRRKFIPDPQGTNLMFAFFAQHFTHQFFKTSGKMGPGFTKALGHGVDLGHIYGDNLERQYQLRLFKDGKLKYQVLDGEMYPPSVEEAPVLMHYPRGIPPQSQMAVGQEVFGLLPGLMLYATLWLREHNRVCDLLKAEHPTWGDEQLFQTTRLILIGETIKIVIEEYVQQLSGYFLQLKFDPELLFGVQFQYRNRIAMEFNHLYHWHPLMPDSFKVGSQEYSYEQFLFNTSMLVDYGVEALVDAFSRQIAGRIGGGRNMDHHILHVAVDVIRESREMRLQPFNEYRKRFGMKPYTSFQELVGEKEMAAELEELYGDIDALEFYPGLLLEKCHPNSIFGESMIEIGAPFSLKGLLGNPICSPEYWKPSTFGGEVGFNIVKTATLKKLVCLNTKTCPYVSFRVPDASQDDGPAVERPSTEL
Description: as §1, §2

human recombinant COX-2 = target: T2, human recombinant COX-2 (Homo sapiens, UniProt P35354); experiment: COX-2 inhibition, COS cell assay; format: cell-based; settings: for inhibition at 0.1 µM / inhibition at 1 µM / inhibition at 10 µM: COS, read-out: Inhibition of COX Enzymes in COS Cell Assays, COX-2 % inhibition; for IC50: COS cells, COX-2, read-out: Inhibition of COX Enzymes in COS Cell Assays, COX-2 IC50
T2 construct: expressed in transfected cells; host or cells: Cos-A2 cells, stably transfected
T2 sequence (P35354 18-604): T1 sequence (P35354 18-604)
Description: (§3) Cos-A2 cells stably transfected with human recombinant COX-1 or COX-2 are cultured in 96 well tissue culture plates with Dulbecco's Modified Eagle Medium supplemented with 10% fetal bovine serum, glutamine (2 mM), penicillin (50 U/mL), streptomycin ([…]) and geneticin (400 μg/mL). Media is removed from confluent monolayers and the cells are washed twice with Hank's buffered saline solution. Fresh HBSS is added, with or without inhibitor, and the cells are incubated for 30 minutes at 37° C. Arachidonic acid (30 μM) is then added and the cells are incubated for an additional one hour at 37° C. Individual experiments represent a mean of triplicate wells for control and inhibitor doses. Supernatents are removed and stored at -80° C. until assayed for PGE2 by EIA (Amersham).
as §2

human recombinant COX-1 = target: T3, human recombinant COX-1 (Homo sapiens, UniProt P23219); experiment: COX-1 inhibition, COS cell assay; format: cell-based; settings: for inhibition at 0.1 µM / inhibition at 1 µM / inhibition at 10 µM: COS, read-out: Inhibition of COX Enzymes in COS Cell Assays, COX-1 % inhibition
T3 construct: expressed in transfected cells; host or cells: Cos-A2 cells, stably transfected
T3 sequence (P23219 24-599): as above
Description: as §3, §2

[3] = tested on: Carrageenan-induced paw edema; experiment: Carrageenan-Induced Paw Edema in Rats; format: in vivo, rat; settings: oral, 10 mg/kg; *p < 0.05
Description: The antiinflammatory activities of two compounds in accordance with the invention (those of Examples 1 and 10) were determined in vivo and compared to those of the known antiinflammatory agents indomethacin and meloxicam, using the Carrageenan-Induced Paw Edema in Rats protocol described by C. A Winter et al. J. Pharmacol. Exp. Ther. 1963, 141, 369. Test compounds were administered orally.

SMILES	inhibition at 0.1 µg/mL [1] [%]	inhibition at 1 µg/mL [1] [%]	inhibition at 10 µg/mL [1] [%]	inhibition at 0.1 µg/mL [2] [%]	inhibition at 1 µg/mL [2] [%]	inhibition at 10 µg/mL [2] [%]	inhibition at 0.1 µM (human recombinant COX-2) [%]	inhibition at 1 µM (human recombinant COX-2) [%]	inhibition at 10 µM (human recombinant COX-2) [%]	IC50 (human recombinant COX-2) [nM]	inhibition at 1 µM (human recombinant COX-1; 1 μM) [%]	inhibition at 10 µM (human recombinant COX-1; 10 μM) [%]	inhibition at 0.1 µM (human recombinant COX-1; 0.1 μM) [%]	IC50 (human recombinant COX-1; COS cells, COX-1, read-out: Inhibition of COX Enzymes in COS Cell Assays, COX-1 IC50) [nM]	inhibition at 0.1 µM (human recombinant COX-1) [%]	inhibition at 1 µM (human recombinant COX-1) [%]	inhibition at 10 µM (human recombinant COX-1) [%]	Effect of Compounds in Carrageenen Paw Edema in Rats, % Inhibition [3] [%]
COc1ccc(S(=O)(=O)C2C(=O)N(Cc3ccccc3)C(=O)c3ccccc32)cc1 (stereo not shown) [Example 16]	21	74	97	33	81	93	–	–	–	–	–	–	–	–	–	–	–	–
Cc1ccc(S(=O)(=O)C2C(=O)N(Cc3ccccc3)C(=O)c3ccccc32)cc1 (stereo not shown) [Example 14]	-13	63	100	59	93	100	–	–	–	–	–	–	–	–	–	–	–	–
CC(C)S(=O)(=O)C1C(=O)N(Cc2cccc(Cl)c2)C(=O)c2ccccc21 (stereo not shown) [Example 6]	10	27	27	-10	19	30	–	–	–	–	–	–	–	–	–	–	–	–
O=C1c2ccccc2C(S(=O)(=O)c2ccc(Br)cc2)C(=O)N1Cc1ccccc1 (stereo not shown) [Example 13]	28	92	100	44	74	100	–	–	–	–	–	–	–	–	–	–	–	–
CC(C)S(=O)(=O)C1C(=O)N(Cc2ccccc2)C(=O)c2ccccc21 (stereo not shown) [Example 5]	27	56	58	-6	11	23	17	37	51	–	–	–	–	–	13	43	74	–
O=C1c2ccccc2C(S(=O)(=O)c2ccc([N+](=O)[O-])cc2)C(=O)N1Cc1ccccc1 (stereo not shown) [Example 20]	20	37	46	21	41	62	–	–	–	–	–	–	–	–	–	–	–	–
CC(C)S(=O)(=O)C1C(=O)N(Cc2ccc(Cl)cc2)C(=O)c2ccccc21 (stereo not shown) [Example 7]	3	62	67	-3	4	36	26	52	74	–	46	72	6	–	–	–	–	–
CC(C)(C)c1ccc(S(=O)(=O)C2C(=O)N(Cc3ccccc3)C(=O)c3ccccc32)cc1 (stereo not shown) [Example 17]	20	12	39	17	20	45	–	–	–	–	–	–	–	–	–	–	–	–
CC(C)S(=O)(=O)C1C(=O)N(Cc2ccc(F)c(F)c2)C(=O)c2ccccc21 (stereo not shown) [Example 9]	8	75	80	10	17	57	–	–	–	200	–	–	–	570	–	–	–	–
CC(C)S(=O)(=O)C1C(=O)N(Cc2ccc(F)cc2)C(=O)c2ccccc21 (stereo not shown) [Example 8]	-1	68	86	–	–	–	–	–	–	90	–	–	–	–	–	–	–	–
COc1ccc2c(c1)c(CC(=O)O)c(C)n2C(=O)c1ccc(Cl)cc1 [Indomethacin, reference compound]	–	–	–	–	–	–	–	–	–	–	–	–	–	–	–	–	–	58
CC(C)S(=O)(=O)C1C(=O)N(Cc2ccccc2F)C(=O)c2ccccc21 (stereo not shown) [Example 2, 2-(2-Fluorobenzyl)-4-(1-methylethyl)sulfonyl-4H-isoquinoline-1,3-dione]	10	37	49	-1	14	18	–	45	46	–	33	39	–	–	–	–	–	–
O=C1c2ccccc2C(S(=O)(=O)c2ccc3ccccc3c2)C(=O)N1Cc1ccccc1 (stereo not shown) [Example 15]	-29	14	34	23	24	57	–	–	–	–	–	–	–	–	–	–	–	–

Now from value to compound, other results behind:

inhibition at 0.1 µg/mL [1] [%]	inhibition at 1 µg/mL [1] [%]	inhibition at 10 µg/mL [1] [%]	inhibition at 0.1 µg/mL [2] [%]	inhibition at 1 µg/mL [2] [%]	inhibition at 10 µg/mL [2] [%]	inhibition at 0.1 µM (human recombinant COX-2) [%]	inhibition at 1 µM (human recombinant COX-2) [%]	inhibition at 10 µM (human recombinant COX-2) [%]	IC50 (human recombinant COX-2) [nM]	inhibition at 1 µM (human recombinant COX-1; 1 μM) [%]	inhibition at 10 µM (human recombinant COX-1; 10 μM) [%]	inhibition at 0.1 µM (human recombinant COX-1; 0.1 μM) [%]	IC50 (human recombinant COX-1; COS cells, COX-1, read-out: Inhibition of COX Enzymes in COS Cell Assays, COX-1 IC50) [nM]	SMILES	inhibition at 0.1 µM (human recombinant COX-1) [%]	inhibition at 1 µM (human recombinant COX-1) [%]	inhibition at 10 µM (human recombinant COX-1) [%]	Effect of Compounds in Carrageenen Paw Edema in Rats, % Inhibition [3] [%]
0	30	20	4	15	15	–	–	–	–	–	–	–	–	CCCCS(=O)(=O)C1C(=O)N(Cc2ccccc2)C(=O)c2ccccc21 (stereo not shown) [Example 4]	–	–	–	–
23	32	52	4	21	50	–	0	30	64000	0	64	–	–	O=C1c2ccccc2C(S(=O)(=O)CC(F)(F)F)C(=O)N1Cc1ccccc1 (stereo not shown) [Example 11]	–	–	–	–
-6	15	27	-9	22	33	–	–	–	–	–	–	–	–	CCCS(=O)(=O)C1C(=O)N(Cc2ccccc2)C(=O)c2ccccc21 (stereo not shown) [Example 3]	–	–	–	–
59	89	93	52	71	89	–	–	–	–	–	–	–	–	O=C1c2ccccc2C(S(=O)(=O)c2ccc(Cl)cc2)C(=O)N1Cc1ccccc1 (stereo not shown) [Example 19]	–	–	–	–
12	46	48	17	14	67	65	80	89	–	67	94	35	–	O=C1c2ccccc2C(S(=O)(=O)c2cccs2)C(=O)N1Cc1ccccc1 (stereo not shown) [Example 21]	–	–	–	–
33	66	81	48	76	92	–	–	–	–	–	–	–	–	O=C1c2ccccc2C(S(=O)(=O)c2ccc(F)cc2)C(=O)N1Cc1ccccc1 (stereo not shown) [Example 18]	–	–	–	–
–	–	–	17	59	74	–	–	–	–	61	85	22	–	O=C1c2ccccc2C(S(=O)(=O)c2ccccc2)C(=O)N1Cc1ccccc1 (stereo not shown) [Example 12]	–	–	–	–

Source: patent publication US5741798A, “2-benzyl-4-sulfonyl-4H-isoquinolin-1,3-diones and their use as antiinflammatory agents” (priority 1997, dated 1998)
